Molecular target: T1, chimeric human H3 receptor (Homo sapiens, UniProt Q9Y5N1)
T1 construct: rat Galpha-i2 (Gnai2, rat); made in house; host or cells: Sf9 insect cells (baculovirus); P2 membranes
Experiment: Chimeric human H3 receptor screening GTP binding assay (inhibition of histamine-stimulated GTP-gamma35S binding, Example 8)
Type: biochemical
Details: 1 h; assay of Example 8; symbol "!" in column headed Ki; read-out: percent inhibition of agonist-induced GTP-gammaS binding to H3
Method in brief: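 Sf9 membranes co-expressing chimeric human H3 receptor and heterotrimeric G-protein (35 μg protein) incubated 60 min at room temperature with 4 μM compound, 1 μM histamine and 125 pM GTP-gamma35S in pH 7.4 buffer with 10 μM GDP. Filter-bound radioactivity, nonspecific (10 μM GTP-gammaS) subtracted, reported as % inhibition of histamine signal.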

T1 sequence (Q9Y5N1 with tags, fused parts or gaps): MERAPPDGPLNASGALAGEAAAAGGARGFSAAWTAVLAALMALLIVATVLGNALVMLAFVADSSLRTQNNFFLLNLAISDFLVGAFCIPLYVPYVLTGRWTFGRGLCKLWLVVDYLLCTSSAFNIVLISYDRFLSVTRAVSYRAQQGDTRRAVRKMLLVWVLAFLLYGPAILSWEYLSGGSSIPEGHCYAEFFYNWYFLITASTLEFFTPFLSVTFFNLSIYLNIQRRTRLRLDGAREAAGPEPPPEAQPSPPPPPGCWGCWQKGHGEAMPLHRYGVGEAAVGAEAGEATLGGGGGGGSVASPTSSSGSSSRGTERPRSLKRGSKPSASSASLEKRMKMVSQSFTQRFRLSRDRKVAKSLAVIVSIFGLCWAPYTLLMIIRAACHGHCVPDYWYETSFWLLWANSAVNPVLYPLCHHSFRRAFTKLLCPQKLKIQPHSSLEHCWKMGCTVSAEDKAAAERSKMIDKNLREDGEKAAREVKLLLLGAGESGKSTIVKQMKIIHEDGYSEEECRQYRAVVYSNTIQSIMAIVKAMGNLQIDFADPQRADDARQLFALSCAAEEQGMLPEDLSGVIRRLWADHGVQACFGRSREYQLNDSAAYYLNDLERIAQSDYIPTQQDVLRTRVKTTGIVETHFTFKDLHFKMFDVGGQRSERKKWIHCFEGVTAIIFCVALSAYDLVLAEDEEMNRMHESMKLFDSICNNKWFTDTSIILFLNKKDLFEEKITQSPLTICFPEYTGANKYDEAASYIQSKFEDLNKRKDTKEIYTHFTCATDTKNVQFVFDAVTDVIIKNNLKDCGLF

Inhibition at 4 µM, ≥ 90%:
O=C(c1ccc(-c2ccccc2)cc1)N1CCc2cnc(N3CCN(C4CCC4)CC3)nc2CC1 [Compound 365]
O=C(c1ccc(OC(F)F)cc1)N1CCc2cnc(N3CCN(C4CCC4)CC3)nc2CC1 [Compound 366, 2-(4-cyclobutylpiperazin-1-yl)-7-[4-(difluoromethoxy)benzoyl]-6,7,8,9-tetrahydro-5H-pyrimido[4,5-d]azepine]
CCOc1cccc(C(=O)N2CCc3cnc(N4CCN(C5CCC5)CC4)nc3CC2)c1 [Compound 367, 2-(4-cyclobutylpiperazin-1-yl)-7-(3-ethoxybenzoyl)-6,7,8,9-tetrahydro-5H-pyrimido[4,5-d]azepine]
CCOc1ccc(C(=O)N2CCc3cnc(N4CCN(C5CCC5)CC4)nc3CC2)cc1 [Compound 368, 2-(4-cyclobutylpiperazin-1-yl)-7-(4-ethoxybenzoyl)-6,7,8,9-tetrahydro-5H-pyrimido[4,5-d]azepine]
CSc1ccc(C(=O)N2CCc3cnc(N4CCN(C5CCC5)CC4)nc3CC2)cc1 [Compound 369, 2-(4-cyclobutylpiperazin-1-yl)-7-[4-(methylthio)benzoyl]-6,7,8,9-tetrahydro-5H-pyrimido[4,5-d]azepine]
CCSc1ccc(C(=O)N2CCc3cnc(N4CCN(C5CCC5)CC4)nc3CC2)cc1 [Compound 370, 2-(4-cyclobutylpiperazin-1-yl)-7-[4-(ethylthio)benzoyl]-6,7,8,9-tetrahydro-5H-pyrimido[4,5-d]azepine]
COc1ccc(C(=O)N2CCc3cnc(N4CCN(C5CCC5)CC4)nc3CC2)cc1F [Compound 371, 2-(4-cyclobutylpiperazin-1-yl)-7-(3-fluoro-4-methoxybenzoyl)-6,7,8,9-tetrahydro-5H-pyrimido[4,5-d]azepine]
O=C(c1ccc(Oc2ccccc2)cc1)N1CCc2cnc(N3CCN(C4CCC4)CC3)nc2CC1 [Compound 372, 2-(4-cyclobutylpiperazin-1-yl)-7-(4-phenoxybenzoyl)-6,7,8,9-tetrahydro-5H-pyrimido[4,5-d]azepine]
O=C(c1ccc(OC(F)(F)F)cc1)N1CCc2cnc(N3CCN(C4CCC4)CC3)nc2CC1 [Compound 373, 2-(4-cyclobutylpiperazin-1-yl)-7-[4-(trifluoromethoxy)benzoyl]-6,7,8,9-tetrahydro-5H-pyrimido[4,5-d]azepine]
O=C(c1cccc(Oc2ccccc2)c1)N1CCc2cnc(N3CCN(C4CCC4)CC3)nc2CC1 [Compound 374, 2-(4-cyclobutylpiperazin-1-yl)-7-(3-phenoxybenzoyl)-6,7,8,9-tetrahydro-5H-pyrimido[4,5-d]azepine]
O=C(c1ccc2c(c1)CCO2)N1CCc2cnc(N3CCN(C4CCC4)CC3)nc2CC1 [Compound 375, 2-(4-cyclobutylpiperazin-1-yl)-7-(2,3-dihydro-1-benzofuran-5-ylcarbonyl)-6,7,8,9-tetrahydro-5H-pyrimido[4,5-d]azepine]
COc1ccc(C(=O)N2CCc3cnc(N4CCN(C5CCC5)CC4)nc3CC2)cc1OC1CCCC1 [Compound 376, 2-(4-cyclobutylpiperazin-1-yl)-7-[3-(cyclopentyloxy)-4-methoxybenzoyl]-6,7,8,9-tetrahydro-5H-pyrimido[4,5-d]azepine]
O=C(c1ccc2c(c1)OCO2)N1CCc2cnc(N3CCN(C4CCC4)CC3)nc2CC1 [Compound 377, 7-(1,3-benzodioxol-5-ylcarbonyl)-2-(4-cyclobutylpiperazin-1-yl)-6,7,8,9-tetrahydro-5H-pyrimido[4,5-d]azepine]
COc1ccc(C(=O)N2CCc3cnc(N4CCN(C5CCC5)CC4)nc3CC2)cc1OC [Compound 378, 2-(4-cyclobutylpiperazin-1-yl)-7-(3,4-dimethoxybenzoyl)-6,7,8,9-tetrahydro-5H-pyrimido[4,5-d]azepine]

— patent US20080051387A1, “TETRAHYDROPYRIDO[3,4-D]PYRIMIDINES AND RELATED ANALOGUES” (priority 2006, published 2008)
